Assays:
human c-Mpl = target: T1, human c-Mpl (Homo sapiens, UniProt P40238); experiment: interference with rhTPO binding to human platelets; conditions: concentrations up to 100 μM
T1 construct: endogenous in cells; host or cells: human platelets
T1 sequence (P40238 26-635): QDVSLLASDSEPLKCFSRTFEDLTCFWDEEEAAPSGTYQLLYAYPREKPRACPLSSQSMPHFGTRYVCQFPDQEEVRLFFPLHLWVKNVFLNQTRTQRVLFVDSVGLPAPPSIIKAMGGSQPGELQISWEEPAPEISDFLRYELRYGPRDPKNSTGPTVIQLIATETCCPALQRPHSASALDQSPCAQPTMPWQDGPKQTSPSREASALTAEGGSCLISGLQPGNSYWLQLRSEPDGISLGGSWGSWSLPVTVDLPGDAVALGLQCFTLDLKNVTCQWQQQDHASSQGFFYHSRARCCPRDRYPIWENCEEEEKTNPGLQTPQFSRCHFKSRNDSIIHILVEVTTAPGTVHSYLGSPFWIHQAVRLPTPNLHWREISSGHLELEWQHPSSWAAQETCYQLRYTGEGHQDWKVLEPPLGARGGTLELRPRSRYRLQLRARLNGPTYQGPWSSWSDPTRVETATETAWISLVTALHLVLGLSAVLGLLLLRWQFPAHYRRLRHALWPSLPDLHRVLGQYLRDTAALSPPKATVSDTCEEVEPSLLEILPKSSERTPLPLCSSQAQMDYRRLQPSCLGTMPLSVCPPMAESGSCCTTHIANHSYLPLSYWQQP

liver microsomal enzymes = experiment: metabolism by dog liver microsomal enzymes; assay type: in vitro ADME
[1] = cardiovascular and respiratory system effects in the conscious dog; assay type: in vivo; conditions: up to a dose of 300 mg/kg
[2] = in-vitro plasma protein binding, rabbits; assay type: in vitro ADME; conditions: rabbit, 0.05 to 50 μg/mL
Experimental: The in-vitro plasma protein binding of the drug of Formula I was independent of concentration over the concentration range of 0.05 to 50 μg/mL and was 87.2-89.1% in mice; 87.6-89.2% in rats; 88.3-92.0% in rabbits; […] in dogs; 97.0-97.6% in monkeys; and 96.3-96.6% in humans.

2C9 = 2C9 (Homo sapiens, UniProt P11712); experiment: inhibition of human liver cytochrome P450 2C9; assay type: in vitro ADME; conditions: human liver cytochrome P450 isoenzyme
2C9, sequence (P11712 whole entry): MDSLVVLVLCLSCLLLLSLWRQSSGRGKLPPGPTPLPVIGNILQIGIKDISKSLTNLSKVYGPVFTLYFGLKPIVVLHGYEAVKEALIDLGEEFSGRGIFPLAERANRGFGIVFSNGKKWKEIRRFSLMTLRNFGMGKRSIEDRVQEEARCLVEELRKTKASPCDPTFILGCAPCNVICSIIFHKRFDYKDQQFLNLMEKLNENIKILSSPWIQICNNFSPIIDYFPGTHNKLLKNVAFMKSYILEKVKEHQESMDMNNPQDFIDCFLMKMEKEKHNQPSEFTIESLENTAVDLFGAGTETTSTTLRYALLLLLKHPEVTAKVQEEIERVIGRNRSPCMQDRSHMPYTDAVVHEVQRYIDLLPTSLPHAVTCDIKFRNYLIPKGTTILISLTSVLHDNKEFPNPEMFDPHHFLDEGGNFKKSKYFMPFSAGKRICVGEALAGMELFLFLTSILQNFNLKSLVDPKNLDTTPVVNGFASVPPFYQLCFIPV

**Q.** Which “interference with rhTPO binding to human platelets” value (human c-Mpl) does the source give for `O=C(Nc1nc(-c2cc(Cl)cs2)c(N2CCN(C3CCCCC3)CC2)s1)c1cnc(N2CCC(C(=O)O)CC2)c(Cl)c1` [Formula I, 1-(3-chloro-5-{[4-(4-chlorothiophen-2-yl)-5-(4-cyclohexylpiperazin-1-yl)thiazol-2-yl]carbamoyl}pyridin-2-yl)piperadine-4-carboxylic acid] here?
**A.** does not interfere

**Q.** And the “metabolism by liver microsomal enzymes” value (liver microsomal enzymes)?
**A.** does not appear to be metabolized

**Q.** And the “cardiovascular or respiratory system effects” value [1]?
**A.** No cardiovascular or respiratory system effects were observed

**Q.** And the fraction unbound [2]?
**A.** 0.08 to 0.117

**Q.** What about the “inhibition of CYP2C9” value (2C9) of the same compound?
**A.** did not inhibit

Source: US20110224226A1, “COMPOSITIONS AND METHODS FOR INCREASING BLOOD PLATELET LEVELS IN HUMANS” (AKARX, Inc., priority 2006, published 2011)
